The values below are quoted from earlier work in patent publication US10029116B2, “Method for the treatment of acne” (DUSA PHARMACEUTICALS, INC., priority 2012, dated 2018).

Data set [1] relates to protoporphyrin IX in acne lesions.
The next data set has as its system protoporphyrin IX. The note with it: mouse skin.

SMILES strings stand for the structures.

As for `NCC(=O)CCC(=O)O` [ALA, aminolevulinic acid], in data set [1] (no occlusive covering), the “time by which the ability of light to excite protoporphyrin IX in acne lesions disappeared” value was at most 24 h. In addition, the “persistence of the ability of light to excite protoporphyrin IX in skin having acne lesions” value in data set [1] (occlusive covering placed over the skin) was at most 24 h. Also, in the data set on protoporphyrin IX, the “time for protoporphyrin levels to return to near pretreatment baseline” value is given as “about 18 hours” and the “time to peak protoporphyrin IX concentration” value is “about six”.
